# Assay results taken from patent publication US20070176143A1, “Stable ill-defined cubic nanosized particles in a ternary aqueous phase” (YISSYM RESEARCH DEVELOPMENT COMPANY OF THE HEBREW …, priority 2003, published 2007).
# Experimental: Well ordered liquid crystals have many applications all utilizing their relative structured character and the very large surface area they posses.
# (§1) 2 gr of GMO were melted by heating to about 50° C. In a separate vessel, 2 gr of GMO and lycopene (0.0085 gr) were placed. The vessel was closed and its contents were mixed well with vortex until all the lycopene dissolved. 0.5 gr ethanol was added and the combination further mixed. The vessel was placed in a bath at a temperature of 45° C. 2.5 gr water were added.
# 2 gr of GMO were melted by heating to about 50° C. In a separate vessel, 2 gr of GMO and 0.5 gr of ethanol were placed. The vessel was closed and its contents were mixed well with vortex. The vessel was placed in a bath at 45° C.
# as §1, with “carbamazepine (0.044” for “lycopene (0.0085”, “carbamazepine” for “lycopene”
# 2 gr of GMO were melted by heating to about 50° C. In a separate vessel, 2 gr of GMO and phytosterol (0.2 gr) were placed. […] 0.5 gr ethanol was added and the combination further mixed. The vessel was placed in a bath at a temperature of 45° C. 2.5 gr water were added.
row,solubilization in an aqueous phase comprising the QL semi-ordered phase,Molecule
1,successfully solubilized,CC(C)=CCC/C(C)=C/C=C/C(C)=C/C=C/C(C)=C/C=C/C=C(C)/C=C/C=C(C)/C=C/C=C(\C)CCC=C(C)C [Lycopene]
2,successfully solubilized,"NC(=O)N1c2ccccc2C=Cc2ccccc21 [carbamazapine, reference compound]"
3,successfully solubilized,CC1=C[C@H](O)CC(C)(C)[C@H]1/C=C/C(C)=C/C=C/C(C)=C/C=C/C=C(C)/C=C/C=C(C)/C=C/C1=C(C)C[C@@H](O)CC1(C)C [leutin]
4,successfully solubilized,CC1=C(/C=C/C(C)=C/C=C/C(C)=C/C=C/C=C(C)/C=C/C=C(C)/C=C/C2=C(C)CCCC2(C)C)C(C)(C)CCC1 [β-carotene]
5,all the phytosterol dissolved,phytosterol
